Test results reported in patent US5252570A, “Amidino and guanidino derivatives” (B.I. Italia, priority 1988, dated 1993).
Where a name gives a salt, the structure may show the parent alone. Read-outs that look alike come from different tables or passages of the source.

Target: T1, 5-HT3 receptors (Rattus norvegicus, UniProt P35563)
T1 construct: from tissue; host or cells: whole anesthetized rat (in vivo)
T1 sequence (P35563 24-483): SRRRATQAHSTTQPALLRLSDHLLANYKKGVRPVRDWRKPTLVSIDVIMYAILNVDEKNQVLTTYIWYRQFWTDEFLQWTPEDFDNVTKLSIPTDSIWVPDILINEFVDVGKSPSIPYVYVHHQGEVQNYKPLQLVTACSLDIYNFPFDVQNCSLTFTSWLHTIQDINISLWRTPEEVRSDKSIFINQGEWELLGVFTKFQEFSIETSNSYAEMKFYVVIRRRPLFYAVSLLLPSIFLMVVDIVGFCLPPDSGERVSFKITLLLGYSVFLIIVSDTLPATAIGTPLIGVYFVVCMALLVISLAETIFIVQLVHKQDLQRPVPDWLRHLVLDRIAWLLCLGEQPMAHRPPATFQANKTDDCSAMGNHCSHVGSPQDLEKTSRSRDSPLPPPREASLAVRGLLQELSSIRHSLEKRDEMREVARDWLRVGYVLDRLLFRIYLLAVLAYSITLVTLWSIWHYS
Test: Bezold-Jarish reflex in anesthetized rats (serotonin-induced bradycardia and hypotension)
Assay type: in vivo
Settings: iv, antagonist injected 5 min before serotonin (20 μg/kg i.v.), urethane-anesthetized rats
Text: As already mentioned hereinbefore the new compounds of formula (I), according to the present invention, have interesting pharmacological properties owing to their ability to antagonize the physiological 5-HT effects at 5-HT3 receptors in warm-blooded animals. Therefore the new compounds are commercially useful in the prevention and in the treatment of disorders wherein 5-HT3 receptors are involved, such as chemotherapy or radiation induced nausea and emesis, migraine, delayed gastric emptying, stress-induced psychological disorders, irritable bowel syndrome, arrhytmia and rhinitis.
Bezold-Jarish Reflex in Anesthetized Rats
Rats (250-275 g) were anesthetized with urethane (1.25 g/kg ip.). The blood pressure and the heart rate were recorded from the left femoral artery by means of a pressure transducer (Statham) connected with a cardiotachometer. The Bezold-Jarish reflex was elicited by rapid intravenous injection of serotonin (20 μg/kg).
Increasing doses of antagonists were injected 5 min. before serotonin to evaluate their effect on the initial bradycardia and associated fall in blood pressure resulting from the reflex vagal stimulation. In other experiments, the right vagus nerve was stimulated with platinum electrodes at 10 V, 10 Hz, 2 msec, (Grass 248 stimulator), to evoke bradycardia. ED50 values were calculated by linear regression analysis of the data expressed as percentage inhibition.

[1] = inhibition of fall in blood pressure, read-out: Hypotension ED50

SMILES	ED50 [1]	ED50 (inhibition of initial bradycardia, read-out: Bradycardia ED50)
N=CN1[C@@H]2CC[C@H]1C[C@@H](OC(=O)c1c[nH]c3ccccc13)C2 [Compound 16, endo-8-(Iminomethyl-8-azabicyclo[3.2.1]oct-3-yl)-1H-indol-3-carboxylate hydrochloride]	0.3 µg/kg	–
N=CN1[C@@H]2CC[C@H]1C[C@@H](OC(=O)c1cc(Cl)cc(Cl)c1)C2 [Compound 15, endo-(8-Iminomethyl-8-azabicyclo-[3.2.1]oct-3-yl)-3,5-dichlorobenzoate hydrochloride]	0.5 µg/kg	0.2 µg/kg
